From PubChem BioAssay AID2060486 (Molecular Pharmacology Branch, DTP, NCI, 2025)

Tested on: IGROV1 complex spheroids (HUVEC, MSC), viability % test/control
Assay: Anticancer human tumor IGROV1 cell line growth inhibition [GQUAD];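 note: spheroids exposed to compounds for 7 days before readout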;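 for viability, T/C: 100% = DMSO vehicle control viability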
Conditions: for IC50: curve of first compound; for viability, T/C: stronger effect = lower value
In short: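 Tumor cells were grown as complex spheroids with HUVEC endothelial cells and mesenchymal stem cells as stroma. G-quadruplex stabilizers were combined with targeted agents over half-log dilutions from near the clinical Cmax, or from 10 microM.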

[1] = second compound 0.0316 µM, first compound 0.0316 µM
[2] = second compound 0.0316 µM, first compound 0.1 µM
[3] = second compound 0.0316 µM, first compound 0.316 µM
[4] = second compound 0.0316 µM, first compound 1 µM
[5] = second compound 0.0316 µM, first compound 3.16 µM
[6] = second compound 0.0316 µM, first compound 10 µM
[7] = second compound 0.1 µM, first compound 0.0316 µM
[8] = second compound 0.1 µM, first compound 0.1 µM
[9] = second compound 0.1 µM, first compound 0.316 µM
[10] = second compound 0.1 µM, first compound 1 µM
[11] = second compound 0.1 µM, first compound 3.16 µM
[12] = second compound 0.1 µM, first compound 10 µM
[13] = second compound 0.316 µM, first compound 0.0316 µM
[14] = second compound 0.316 µM, first compound 0.1 µM
[15] = second compound 0.316 µM, first compound 0.316 µM
[16] = second compound 0.316 µM, first compound 1 µM
[17] = second compound 0.316 µM, first compound 3.16 µM
[18] = second compound 0.316 µM, first compound 10 µM
[19] = second compound 1 µM, first compound 0.0316 µM
[20] = second compound 1 µM, first compound 0.1 µM
[21] = second compound 1 µM, first compound 0.316 µM
[22] = second compound 1 µM, first compound 1 µM
[23] = second compound 1 µM, first compound 3.16 µM
[24] = second compound 1 µM, first compound 10 µM
[25] = second compound 3.16 µM, first compound 0.0316 µM
[26] = second compound 3.16 µM, first compound 0.1 µM
[27] = second compound 3.16 µM, first compound 0.316 µM
[28] = second compound 3.16 µM, first compound 1 µM
[29] = second compound 3.16 µM, first compound 3.16 µM
[30] = second compound 3.16 µM, first compound 10 µM
[31] = second compound 10 µM, first compound 0.0316 µM
[32] = second compound 10 µM, first compound 0.1 µM
[33] = second compound 10 µM, first compound 0.316 µM
[34] = second compound 10 µM, first compound 1 µM
[35] = second compound 10 µM, first compound 3.16 µM
[36] = second compound 10 µM, first compound 10 µM

**Q.** Which results are given for C#Cc1c(F)ccc2cc(O)cc(-c3ncc4c(N5CC6CCC(C5)N6)nc(OCC56CCCN5CC(F)C6)nc4c3F)c12 (stereo unspecified) + Cc1[nH]c2ccc(F)cc2c1-c1nc2c3cccnc3c3ncccc3c2[nH]1?
**A.** IC50 (second compound 0.0316 µM): > 10000 nM; IC50 (second compound 0.1 µM): > 10000 nM; IC50 (second compound 0.316 µM): 3920 nM; IC50 (second compound 1 µM): < 31.6 nM; IC50 (second compound 3.16 µM): < 31.6 nM; IC50 (second compound 10 µM): < 31.6 nM; viability, T/C [1]: 101%; viability, T/C [2]: 76.3%; viability, T/C [3]: 99.2%; viability, T/C [4]: 78.7%; viability, T/C [5]: 89.2%; viability, T/C [6]: 60.1%; viability, T/C [7]: 88.4%; viability, T/C [8]: 70.3%; viability, T/C [9]: 68.4%; viability, T/C [10]: 81.6%; viability, T/C [11]: 91.4%; viability, T/C [12]: 62.2%; viability, T/C [13]: 66.2%; viability, T/C [14]: 40%; viability, T/C [15]: 69.3%; viability, T/C [16]: 58.6%; viability, T/C [17]: 58.7%; viability, T/C [18]: 12.7%; viability, T/C [19]: 2.66%; viability, T/C [20]: 3.87%; viability, T/C [21]: 2.81%; viability, T/C [22]: 3.06%; viability, T/C [23]: 2.68%; viability, T/C [24]: 1.82%; viability, T/C [25]: 3.12%; viability, T/C [26]: 3.21%; viability, T/C [27]: 3.09%; viability, T/C [28]: 2.69%; viability, T/C [29]: 2.86%; viability, T/C [30]: 1.68%; viability, T/C [31]: 2.87%; viability, T/C [32]: 3.1%; viability, T/C [33]: 3.6%; viability, T/C [34]: 2.65%; viability, T/C [35]: 2.34%; viability, T/C [36]: 1.27%

**Q.** How did the IC50 (second compound 0.0316 µM) turn out when CC(=O)O[C@H]1C(=O)[C@@]2(C)[C@H]([C@H](OC(=O)c3ccccc3)[C@]3(O)C[C@H](OC(=O)[C@H](O)[C@@H](NC(=O)c4ccccc4)c4ccccc4)C(C)=C1C3(C)C)[C@]1(OC(C)=O)CO[C@@H]1C[C@@H]2O + Cc1[nH]c2ccc(F)cc2c1-c1nc2c3cccnc3c3ncccc3c2[nH]1 was run?
**A.** < 31.6 nM

**Q.** And the IC50 (second compound 0.1 µM)?
**A.** < 31.6 nM

**Q.** What about the IC50 (second compound 0.316 µM) of the same compound?
**A.** < 31.6 nM

**Q.** And the IC50 (second compound 1 µM)?
**A.** < 31.6 nM

**Q.** And the IC50 (second compound 3.16 µM)?
**A.** < 31.6 nM

**Q.** And the IC50 (second compound 10 µM)?
**A.** < 31.6 nM

**Q.** And the viability, T/C [1]?
**A.** 8.39%

**Q.** What about the viability, T/C [2] of the same compound?
**A.** 5.36%

**Q.** And the viability, T/C [3]?
**A.** 5.66%

**Q.** And the viability, T/C [4]?
**A.** 4.68%

**Q.** And the viability, T/C [5]?
**A.** 4.86%

**Q.** And the viability, T/C [6]?
**A.** 4.6%

**Q.** And the viability, T/C [7]?
**A.** 7.76%

**Q.** What about the viability, T/C [8] of the same compound?
**A.** 6.43%

**Q.** And the viability, T/C [9]?
**A.** 6.02%

**Q.** And the viability, T/C [10]?
**A.** 4.48%

**Q.** What about the viability, T/C [11] of the same compound?
**A.** 4.3%

**Q.** What about the viability, T/C [12] of the same compound?
**A.** 4.13%

**Q.** What about the viability, T/C [13] of the same compound?
**A.** 4.55%

**Q.** And the viability, T/C [14]?
**A.** 3.65%

**Q.** What about the viability, T/C [15] of the same compound?
**A.** 3.47%

**Q.** What about the viability, T/C [16] of the same compound?
**A.** 3.01%

**Q.** And the viability, T/C [17]?
**A.** 2.72%

**Q.** And the viability, T/C [18]?
**A.** 2.99%

**Q.** What about the viability, T/C [19] of the same compound?
**A.** 2.66%

**Q.** What about the viability, T/C [20] of the same compound?
**A.** 2.5%

**Q.** And the viability, T/C [21]?
**A.** 2.5%

**Q.** And the viability, T/C [22]?
**A.** 2.49%

**Q.** What about the viability, T/C [23] of the same compound?
**A.** 2.3%

**Q.** And the viability, T/C [24]?
**A.** 2.06%

**Q.** And the viability, T/C [25]?
**A.** 2.72%

**Q.** And the viability, T/C [26]?
**A.** 2.23%

**Q.** What about the viability, T/C [27] of the same compound?
**A.** 2.86%

**Q.** What about the viability, T/C [28] of the same compound?
**A.** 2.81%

**Q.** What about the viability, T/C [29] of the same compound?
**A.** 2.28%

**Q.** And the viability, T/C [30]?
**A.** 2.17%

**Q.** And the viability, T/C [31]?
**A.** 1.84%

**Q.** And the viability, T/C [32]?
**A.** 2.38%

**Q.** And the viability, T/C [33]?
**A.** 2.16%

**Q.** What about the viability, T/C [34] of the same compound?
**A.** 2.22%

**Q.** What about the viability, T/C [35] of the same compound?
**A.** 2.3%

**Q.** What about the viability, T/C [36] of the same compound?
**A.** 2.4%

**Q.** Which results are given for CC(C)(O)C1CCC(Nc2ccc3ncc(-c4cccc(C(F)(F)F)c4)n3n2)CC1 (stereo unspecified) + Cc1[nH]c2ccc(F)cc2c1-c1nc2c3cccnc3c3ncccc3c2[nH]1?
**A.** IC50 (second compound 0.0316 µM): 2010 nM; IC50 (second compound 0.1 µM): 1820 nM; IC50 (second compound 0.316 µM): 623 nM; IC50 (second compound 1 µM): < 31.6 nM; IC50 (second compound 3.16 µM): < 31.6 nM; IC50 (second compound 10 µM): < 31.6 nM; viability, T/C [1]: 93.8%; viability, T/C [2]: 83.1%; viability, T/C [3]: 94.3%; viability, T/C [4]: 82.7%; viability, T/C [5]: 27.4%; viability, T/C [6]: 30%; viability, T/C [7]: 99.3%; viability, T/C [8]: 83.3%; viability, T/C [9]: 102%; viability, T/C [10]: 68.5%; viability, T/C [11]: 32.9%; viability, T/C [12]: 33.4%; viability, T/C [13]: 69.6%; viability, T/C [14]: 70.6%; viability, T/C [15]: 65.3%; viability, T/C [16]: 38.8%; viability, T/C [17]: 6.69%; viability, T/C [18]: 5.42%; viability, T/C [19]: 3.27%; viability, T/C [20]: 3.08%; viability, T/C [21]: 4.14%; viability, T/C [22]: 3.08%; viability, T/C [23]: 3.37%; viability, T/C [24]: 2.43%; viability, T/C [25]: 2.86%; viability, T/C [26]: 3.13%; viability, T/C [27]: 3.35%; viability, T/C [28]: 3.26%; viability, T/C [29]: 2.39%; viability, T/C [30]: 2.06%; viability, T/C [31]: 3.41%; viability, T/C [32]: 3.18%; viability, T/C [33]: 3.27%; viability, T/C [34]: 2.99%; viability, T/C [35]: 2.37%; viability, T/C [36]: 2.38%
